# Patent US9028879B2, “Chromium complexes as enhancers of brain glucose transporters” (JDS Therapeutics, LLC, priority 2009, dated 2015)
# Marks after values point to notes of the source that are not given here.
# Assays:
# [1] = test system: subject having GLUT1 deficiency syndrome; assay: Example 3: treatment of subject with GLUT1 deficiency syndrome; type: in vivo; conditions: 50 μg to 5000 μg/day, orally, after a period of time
# Description: A subject is identified as having GLUT1 deficiency syndrome. The subject presents with one or more symptoms associated with GLUT1 deficiency syndrome such as the presence of a SLC2A1 mutation, neurological problems associated with GLUT1 deficiency such as stiffness caused by abnormal tensing of the muscles (spasticity), difficulty in coordinating movements (ataxia), and speech difficulties (dysarthria). The subject can experience episodes of confusion, lack of energy (lethargy), headaches, muscle twitches (myoclonus), or involuntary irregular eye movements, particularly before meals.
# The subject is administered between 50 μg and 5000 μg chromium histidinate, chromium picolinate, or chromium histidinate/chromium picolinate combination complex/day. The chromium histidinate is administered orally.
# [2] = test system: subject having Alzheimer's disease; assay: Example 5: treatment of subject with Alzheimer's disease with standard therapeutics; type: in vivo; conditions: 50 μg to 5000 μg chromium orally with standard therapeutics, over a period of five days
# [3] = reported (Kaats 1998; Cefalu 1999); cited from earlier work
# [4] = Body weight and blood glucose in high fat diet rats; type: in vivo, male Wistar rats
# Description: (§1) Briefly, insulin resistance and hyperglycemia were induced in male Wistar rats by feeding a high fat diet (HFD, 40% of calories as fat). A healthy control group received a standard diet (12% of calories as fat). Rats were fed their diets throughout the 12 week study.
# (§2) Rats (10/group) were divided into groups: healthy control (Control), HFD, and HFD+CrHis. Chromium (Cr) treated rats were fed CrHis (110 mcg/kg body wt/d). Cr treatment started at the beginning of the study and was continued for 12 weeks. […] Body weight, serum chromium levels, and blood glucose levels were also measured.
# [5] = Serum and brain chromium levels in high fat diet rats
# Description: as §1, §2
# [6] = test system: subject having Parkinson's disease; assay: Example 6: treatment of subject with Parkinson's disease; type: in vivo; conditions: 50 μg to 5000 μg, orally, over time
# Protocol: A subject is identified as having Parkinson's disease by conventional methods.
# The subject is administered between 50 μg and 5000 μg chromium polyhistidinate. The chromium is administered orally.
# [7] = HFD rats, CrHis 110 mcg/kg body wt/d, 12 weeks, mean ± s.e.m.
# [8] = compared to the high fat diet alone
Substance,symptoms of GLUT1 deficiency [1],"subject's condition, as assessed by one or more symptoms of the disease [2]",weight loss and changes in body composition [3],"Blood Glucose [4, 7]","Body Weight [4, 7]","blood glucose levels, change [4, 8]","body weight, change [4, 8]","Brain Chromium ([5]; HFD rats, CrHis 110 mcg/kg body wt/d, 12 weeks, brain tissue homogenates, mean ± s.e.m.)","Serum Chromium [5, 7]","brain chromium levels, change [5, 8]","serum chromium levels, change [5, 8]","subject's condition, as assessed by one or more symptoms of the disease [6]"
chromium picolinate,reduction in one or more of the symptoms,does not worsen or improves,modest weight loss,–,–,–,–,–,–,–,–,–
chromium histidinate [CrHis],reduction in one or more of the symptoms,–,–,116.4 ± 2.1^c mg/dL,315.1 ± 1.9^c g,decreased,decreased,17.7 ± 0.2^c ng/g,22.0 ± 0.6^c ng/g,significantly increased,significantly increased,–
chromium polyhistidinate,–,–,–,–,–,–,–,–,–,–,–,does not worsen or improves
